Measurements as given in patent US4148896A, “Antidepressant combination” (E. I. Du Pont de Nemours and Company, priority 1978, dated 1979).
Like-named read-outs stand apart in the source and are kept apart here.

How the values were obtained:
[1] = tested on: tetrabenazine-induced sedation; assay: Mouse antidepressant (antitetrabenazine) test: prevention of tetrabenazine-induced ptosis and loss of exploratory activity; details: for ED50: Mus musculus, po; for No. of Mice Blocked, EXPLORATORY ACTIVITY / No. of Mice Blocked, PTOSIS: 4 h after molindone
[2] = target: T1, mouse brain MAO (Mus musculus, UniProt Q64133); assay: biochemical
T1 sequence (Q64133 1-526): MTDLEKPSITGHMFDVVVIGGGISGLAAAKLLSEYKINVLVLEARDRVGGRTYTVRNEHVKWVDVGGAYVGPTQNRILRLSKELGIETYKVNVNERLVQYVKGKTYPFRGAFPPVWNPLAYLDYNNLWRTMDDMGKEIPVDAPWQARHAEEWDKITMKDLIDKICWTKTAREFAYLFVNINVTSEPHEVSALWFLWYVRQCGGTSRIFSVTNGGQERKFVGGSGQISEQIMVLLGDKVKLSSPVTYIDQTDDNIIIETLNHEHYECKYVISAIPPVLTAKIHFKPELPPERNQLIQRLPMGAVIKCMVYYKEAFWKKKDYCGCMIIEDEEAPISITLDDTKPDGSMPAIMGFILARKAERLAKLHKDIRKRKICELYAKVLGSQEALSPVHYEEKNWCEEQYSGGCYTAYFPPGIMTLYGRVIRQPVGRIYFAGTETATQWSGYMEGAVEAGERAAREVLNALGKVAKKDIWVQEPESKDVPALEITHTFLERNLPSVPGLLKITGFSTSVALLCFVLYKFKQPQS

[3] = tested on: tryptamine-induced stereotypies and hind limb paralysis; assay: Tryptamine potentiation test; type: in vivo, mice; details: for HEAD TWITCH (mice responding) / HIND LIMB PARALYSIS (mice responding): N=10
Protocol: […] […] (60 Mg/kg of tryptamine alone causes this syndrome but it lasts for less than a minute, usually only a few seconds.) The data were analyzed quantally and ED50's calculated.

[4] = 1 mg/kg oral (free base), 1 h, N=10
[5] = 1 mg/kg oral (free base), 2 h, N=10
[6] = 1 mg/kg oral (free base), 4 h, N=10
[7] = 3 mg/kg oral (free base), 1 h, N=10
[8] = 3 mg/kg oral (free base), 2 h, N=10
[9] = 3 mg/kg oral (free base), 4 h, N=10
[10] = 9 mg/kg oral (free base), 1 h, N=10
[11] = 9 mg/kg oral (free base), 2 h, N=10
[12] = 9 mg/kg oral (free base), 4 h, N=10
[13] = 13 mg/kg oral (free base), 1 h, N=20
[14] = 13 mg/kg oral (free base), 2 h, N=20
[15] = 13 mg/kg oral (free base), 3 h, N=20
[16] = 13 mg/kg oral (free base), 4 h, N=20
[17] = 13 mg/kg oral (free base), 6 h, N=20
[18] = 13 mg/kg oral (free base), 24 h, N=20
[19] = 27 mg/kg oral (free base), 1 h, N=10
[20] = 27 mg/kg oral (free base), 2 h, N=10
[21] = 27 mg/kg oral (free base), 4 h, N=10
[22] = 81 mg/kg oral (free base), 1 h, N=10
[23] = 81 mg/kg oral (free base), 2 h, N=10
[24] = 81 mg/kg oral (free base), 4 h, N=10
[25] = molindone 1.5 mg/kg oral alone, N=20
[26] = molindone 4.5 mg/kg oral alone, N=20
[27] = molindone 13.5 mg/kg oral alone, N=20
[28] = molindone 40.5 mg/kg oral alone, N=20
[29] = molindone alone, oral, 4 h, free base basis, N=20 (Table 2)

Question: Which “NUMBER OF MICE BLOCKED, EXPLORATORY ACTIVITY” value [1, 4] does the source give for CCc1c(C)[nH]c2c1C(=O)C(CN1CCOCC1)CC2 (stereo not shown) [Molindone, 3-ethyl-6,7-dihydro-2-methyl-5-(morpholinomethyl)indol-4-(5H)-one] here?
Answer: The value was 0.

Question: And the “NUMBER OF MICE BLOCKED, PTOSIS” value [1, 4]?
Answer: The value was 0.

Question: And the “NUMBER OF MICE BLOCKED, EXPLORATORY ACTIVITY” value [1, 5]?
Answer: Its value is 0.

Question: What about the “NUMBER OF MICE BLOCKED, PTOSIS” value [1, 5] of the same molecule?
Answer: The value was 0.

Question: What about the “NUMBER OF MICE BLOCKED, EXPLORATORY ACTIVITY” value [1, 6] of the same molecule?
Answer: The value was 0.

Question: And the “NUMBER OF MICE BLOCKED, PTOSIS” value [1, 6]?
Answer: The value was 0.

Question: And the “NUMBER OF MICE BLOCKED, EXPLORATORY ACTIVITY” value [1, 7]?
Answer: The value was 0.

Question: And the “NUMBER OF MICE BLOCKED, PTOSIS” value [1, 7]?
Answer: Its value is 0.

Question: And the “NUMBER OF MICE BLOCKED, EXPLORATORY ACTIVITY” value [1, 8]?
Answer: Its value is 0.

Question: And the “NUMBER OF MICE BLOCKED, PTOSIS” value [1, 8]?
Answer: The value was 1.

Question: And the “NUMBER OF MICE BLOCKED, EXPLORATORY ACTIVITY” value [1, 9]?
Answer: Its value is 0.

Question: What about the “NUMBER OF MICE BLOCKED, PTOSIS” value [1, 9] of the same molecule?
Answer: Its value is 0.

Question: And the “NUMBER OF MICE BLOCKED, EXPLORATORY ACTIVITY” value [1, 10]?
Answer: Its value is 0.

Question: What about the “NUMBER OF MICE BLOCKED, PTOSIS” value [1, 10] of the same molecule?
Answer: Its value is 0.

Question: And the “NUMBER OF MICE BLOCKED, EXPLORATORY ACTIVITY” value [1, 11]?
Answer: The value was 3.

Question: What about the “NUMBER OF MICE BLOCKED, PTOSIS” value [1, 11] of the same molecule?
Answer: Its value is 5.

Question: And the “NUMBER OF MICE BLOCKED, EXPLORATORY ACTIVITY” value [1, 12]?
Answer: Its value is 5.

Question: And the “NUMBER OF MICE BLOCKED, PTOSIS” value [1, 12]?
Answer: Its value is 7.

Question: What about the “NUMBER OF MICE BLOCKED, EXPLORATORY ACTIVITY” value [1, 13] of the same molecule?
Answer: The value was 0.

Question: What about the “NUMBER OF MICE BLOCKED, PTOSIS” value [1, 13] of the same molecule?
Answer: Its value is 0.

Question: And the “NUMBER OF MICE BLOCKED, EXPLORATORY ACTIVITY” value [1, 14]?
Answer: The value was 6.

Question: And the “NUMBER OF MICE BLOCKED, PTOSIS” value [1, 14]?
Answer: The value was 8.

Question: What about the “NUMBER OF MICE BLOCKED, EXPLORATORY ACTIVITY” value [1, 15] of the same molecule?
Answer: Its value is 16.

Question: And the “NUMBER OF MICE BLOCKED, PTOSIS” value [1, 15]?
Answer: The value was 19.

Question: What about the “NUMBER OF MICE BLOCKED, EXPLORATORY ACTIVITY” value [1, 16] of the same molecule?
Answer: The value was 19.

Question: What about the “NUMBER OF MICE BLOCKED, PTOSIS” value [1, 16] of the same molecule?
Answer: The value was 20.

Question: And the “NUMBER OF MICE BLOCKED, EXPLORATORY ACTIVITY” value [1, 17]?
Answer: Its value is 20.

Question: And the “NUMBER OF MICE BLOCKED, PTOSIS” value [1, 17]?
Answer: Its value is 20.

Question: And the “NUMBER OF MICE BLOCKED, EXPLORATORY ACTIVITY” value [1, 18]?
Answer: Its value is 6.

Question: What about the “NUMBER OF MICE BLOCKED, PTOSIS” value [1, 18] of the same molecule?
Answer: The value was 10.

Question: What about the “NUMBER OF MICE BLOCKED, EXPLORATORY ACTIVITY” value [1, 19] of the same molecule?
Answer: The value was 0.

Question: And the “NUMBER OF MICE BLOCKED, PTOSIS” value [1, 19]?
Answer: Its value is 0.

Question: What about the “NUMBER OF MICE BLOCKED, EXPLORATORY ACTIVITY” value [1, 20] of the same molecule?
Answer: Its value is 10.

Question: What about the “NUMBER OF MICE BLOCKED, PTOSIS” value [1, 20] of the same molecule?
Answer: Its value is 10.

Question: What about the “NUMBER OF MICE BLOCKED, EXPLORATORY ACTIVITY” value [1, 21] of the same molecule?
Answer: Its value is 10.

Question: What about the “NUMBER OF MICE BLOCKED, PTOSIS” value [1, 21] of the same molecule?
Answer: Its value is 10.

Question: And the “NUMBER OF MICE BLOCKED, EXPLORATORY ACTIVITY” value [1, 22]?
Answer: Its value is 0.

Question: And the “NUMBER OF MICE BLOCKED, PTOSIS” value [1, 22]?
Answer: Its value is 0.

Question: What about the “NUMBER OF MICE BLOCKED, EXPLORATORY ACTIVITY” value [1, 23] of the same molecule?
Answer: The value was 10.

Question: What about the “NUMBER OF MICE BLOCKED, PTOSIS” value [1, 23] of the same molecule?
Answer: The value was 10.

Question: And the “NUMBER OF MICE BLOCKED, EXPLORATORY ACTIVITY” value [1, 24]?
Answer: Its value is 10.

Question: What about the “NUMBER OF MICE BLOCKED, PTOSIS” value [1, 24] of the same molecule?
Answer: Its value is 10.

Question: What about the ED50 ([1]; 1 h, read-out: ED50, EXPLORATORY ACTIVITY) of the same molecule?
Answer: Its ED50 is over 81 mg/kg.

Question: What about the ED50 ([1]; 1 h, read-out: ED50, PTOSIS) of the same molecule?
Answer: Its ED50 is over 81 mg/kg.

Question: What about the ED50 ([1]; 2 h, read-out: ED50, EXPLORATORY ACTIVITY) of the same molecule?
Answer: The ED50 was 11.2 mg/kg.

Question: What about the ED50 ([1]; 2 h, read-out: ED50, PTOSIS) of the same molecule?
Answer: The ED50 was 8.5 mg/kg.

Question: And the ED50 ([1]; 4 h, read-out: ED50, EXPLORATORY ACTIVITY)?
Answer: Its ED50 is 9 mg/kg.

Question: What about the ED50 ([1]; 4 h, read-out: ED50, PTOSIS) of the same molecule?
Answer: The ED50 was 7.2 mg/kg.

Question: What about the “No. of Mice Blocked, EXPLORATORY ACTIVITY” value [1, 25] of the same molecule?
Answer: Its value is 0.

Question: And the “No. of Mice Blocked, PTOSIS” value [1, 25]?
Answer: Its value is 1.

Question: What about the “No. of Mice Blocked, EXPLORATORY ACTIVITY” value [1, 26] of the same molecule?
Answer: The value was 2.

Question: What about the “No. of Mice Blocked, PTOSIS” value [1, 26] of the same molecule?
Answer: Its value is 5.

Question: And the “No. of Mice Blocked, EXPLORATORY ACTIVITY” value [1, 27]?
Answer: The value was 12.

Question: What about the “No. of Mice Blocked, PTOSIS” value [1, 27] of the same molecule?
Answer: Its value is 18.

Question: What about the “No. of Mice Blocked, EXPLORATORY ACTIVITY” value [1, 28] of the same molecule?
Answer: The value was 20.

Question: What about the “No. of Mice Blocked, PTOSIS” value [1, 28] of the same molecule?
Answer: Its value is 20.

Question: And the “ED50, EXPLORATORY ACTIVITY, Molindone” value [1, 29]?
Answer: Its value is 10.8 mg/kg.

Question: And the “ED50, PTOSIS, Molindone” value [1, 29]?
Answer: The value was 6.4 mg/kg.

Question: What about the “Peak time (antitetrabenazine activity)” value ([1]; oral, mice) of the same molecule?
Answer: Its value is 4 to 6 h.

Question: What about the IC50 [2] of the same molecule?
Answer: The IC50 was over 1000 µM.

Question: What about the “HEAD TWITCH (mice responding)” value ([3]; 2.5 mg/kg p.o., 4 Hrs.) of the same molecule?
Answer: The value was 0.

Question: What about the “HIND LIMB PARALYSIS (mice responding)” value ([3]; 2.5 mg/kg p.o., 4 Hrs.) of the same molecule?
Answer: Its value is 0.

Question: And the “ED50, HIND LIMB PARALYSIS” value ([3]; 4 Hrs.)?
Answer: Its value is 8.6 mg/kg p.o.

Question: What about the “HEAD TWITCH (mice responding)” value ([3]; 5. mg/kg p.o., 4 Hrs.) of the same molecule?
Answer: The value was 0.

Question: And the “HIND LIMB PARALYSIS (mice responding)” value ([3]; 5. mg/kg p.o., 4 Hrs.)?
Answer: The value was 1.

Question: What about the “ED50, HEAD TWITCH” value ([3]; 6 Hrs.) of the same molecule?
Answer: The value was 15 mg/kg p.o.

Question: And the “HEAD TWITCH (mice responding)” value ([3]; 10. mg/kg p.o., 1 Hr.)?
Answer: The value was 1.
